Laboratory results as given in publication PMC8224453, “A New PqsR Inverse Agonist Potentiates Tobramycin Efficacy to Eradicate Pseudomonas aeruginosa Biofilms” (Advanced Science, 2021).

Columns and labels:
[1] = Mouse MTD, acute single dose toxicity i.v.; assay type: in vivo; details: mice
Protocol: Pyruvate. Passages between 35 and 55 were used, medium was changed every 2-3 days. For experiments, cells were harvested using Trypsin/EDTA and seeded on Transwell® inserts 3460 at a density of 1∙105 cells. Cells were grown at air-liquid interface beginning day 3 and used for Transport studies on day 11-13. TEER values exceeded 300 Ω∙cm2 before beginning Transport studies. For experiments, Krebs-Ringer solution with 1% BSA was used and cells were accommodated to the buffer for at least 1h with no decrease in TEER. 200 µL samples were taken in regular intervals from the apical side (time intervals 0, 20, 40, 60, 90, 120, 180, 240 minutes) and replenished with fresh buffer. TEER was monitored during the experiment and epithelial barriers were considered compromised if the TEER fell below 300 during 4 h of experiment duration. […] 50 µL of sample was mixed with 150 µL of ice-cold acetonitrile containing internal standard diphenhydramine (1 µM) and the concentration of compound was analyzed with LC-MS/MS. […]
The in vivo tolerability study was performed on ten-week old female C57BL/6N mice. […] Mice behavior and body weight were monitored over 24 h period. At 24 h post-injection, the mice were euthanized, lungs were collected, and the blood leukocytes as well as the absolute leukocytes (including segented, lymphocytes, monocytes and eosinophiles) were counted to access the tolerability. […]

[2] = Metabolic stability, rabbit liver S9; assay type: in vitro ADME; details: pooled liver S9 fraction, Table S4, read-out: t1/2 rabbit liver S9
Protocol: (§1) subtraction and plotted using GraphPad Prism 8.4.2 (GraphPad Software, San Diego, CA, […]
(§2) USA). Solubility (S) was determined based on the First X value of AUC function using a […]
(§3) For the evaluation of combined phase I and phase II metabolic stability, the compound (1 μM) was incubated with 1 mg/mL pooled liver S9 fraction from the respective species (Xenotech), […]
(§4) 2 mM NADPH, 1 mM UDPGA, 10 mM MgCl2, 5 mM GSH and 0.1 mM PAPS at 37 °C for […]
(§5) 0, 5, 15, 30 or 60 min. The metabolic stability of Testosterone (1 μM) and verapamil (1 μM) […]
(§6) were determined in parallel to confirm the enzymatic activity of the S9 fraction. The […]
(§7) incubation was stopped by precipitation of S9 enzymes with 2 volumes of cold acetonitrile […]
(§8) containing internal standard (750 nM Diphenhydramine). Samples were stored on ice for 10 […]
(§9) min and precipitated protein was removed by centrifugation (10 min, 4 °C, 17,000 g).
(§10) Concentration of the remaining test compound at the different time points was analyzed by […]
(§11) LC-MS/MS (TSQ Quantum Access MAX, Thermo Fisher, Dreieich, Germany) and used to […]
(§12) determine half-life (t1/2). Stability of compound 4 in further S9 fractions are summarized in […]
(§13) Table S4. Metabolic stability studies in various S9 fractions. […]
(§14) guinea pig liver S9 92.5 ± 5.4
(§15) 5.6. Permeability studies
(§16) Permeability of compound 4 and 17 was assessed in vitro with Calu-3 HTB-55 cell line (ATCC). […]

[3] = Metabolic stability, dog liver S9; assay type: in vitro ADME; details: pooled liver S9 fraction, Table S4, read-out: t1/2 dog liver S9
Protocol: as §3, §4, §5, §6, §7, §8, §9, §10, §11, §12, §13

[4] = Metabolic stability, rat liver S9; assay type: in vitro ADME; details: pooled liver S9 fraction, Table S4, n=1, read-out: t1/2 rat liver S9
Protocol: as §3, §4, §5, §6, §7, §8, §9, §10, §11, §12, §13

[5] = Metabolic stability, guinea pig liver S9; assay type: in vitro ADME; details: pooled liver S9 fraction, Table S4, read-out: t1/2 guinea pig liver S9
Protocol: as §1, §2, §3, §4, §5, §6, §7, §8, §9, §10, §11, §12, §13, §14, §15, §16

FC(F)(F)c1cc(NCc2cn(-c3ccc(Oc4ccccc4)cc3)nn2)ccn1 [Compound 4]
test dosing up to which no test item related clinical symptoms were observed ([1]; i.v. single dose, after 24 h): ≥ 60 mg/kg
MTD at 24 h ([1]; mouse, in vivo, iv, i.v., read-out: dose up to which well tolerated (maximum tolerated dose study)): ≥ 60 mg/kg
half-life at 1 μM [2]: 20 ± 10 min
half-life at 1 μM [3]: 72.2 ± 7.6 min
half-life at 1 μM [4]: 24.2 min
half-life at 1 μM [5]: 92.5 ± 5.4 min
